# Values quoted from earlier work as cited in US20050112210A1, “Eye nutritional supplement” (priority 2003, published 2005).
# Test system: A2E-epoxidation
# Settings: singlet oxygen generated in the presence of A2E
row,Compound,effect on A2E-epoxidation
1,Cc1cc(C(C)(C)C)c(O)c(C(C)(C)C)c1 [butylated hydroxytoluene],reduced A2E-epoxidation by quenching singlet oxygen
2,vitamin E,reduced A2E-epoxidation by quenching singlet oxygen
3,Oc1ccc(C=Cc2cc(O)cc(O)c2)cc1 [resveratrol],reduced A2E-epoxidation by quenching singlet oxygen
